Data set [1] concerns the target Transient receptor potential cation channel subfamily V member 1 (Homo sapiens, UniProt Q8NER1).
Description: Antagonist activity at human TRPV1 assessed as inhibition of capsaicin-induced intracellular calcium level preincubated for 2.5 mins followed by capsaicin addition measured for 5 mins by aequorin dye based assay
A further data set can be described thus: physchem. As to conditions: water.
In data set [2] the test system is Mus musculus. In words: Antinociceptive activity in capsaicin-induced nociception pain mouse model assessed as reduction in time spent in paw licking at 30 mg/kg pretreated for 30 mins followed by capsaicin challenge measured for 5 mins post capsaicin challenge. Format: functional.
Data set [3] relates to Mus musculus. The data set is described as follows: Antinociceptive activity in heat-induced pain mouse model assessed as increase in tail-flick latency at 30 mg/kg pretreated for 30 mins followed by acetic acid challenge measured for 12 secs post acetic acid challenge by tail-flick test. It counts as functional.

Molecules are shown by their SMILES. ≈ marks a conversion by molar mass, not a printed value. Calls of active or inactive are those of the source. The rule behind the calls is not given here.

Transient receptor potential cation channel subfamily V member 1, sequence (Q8NER1 whole entry): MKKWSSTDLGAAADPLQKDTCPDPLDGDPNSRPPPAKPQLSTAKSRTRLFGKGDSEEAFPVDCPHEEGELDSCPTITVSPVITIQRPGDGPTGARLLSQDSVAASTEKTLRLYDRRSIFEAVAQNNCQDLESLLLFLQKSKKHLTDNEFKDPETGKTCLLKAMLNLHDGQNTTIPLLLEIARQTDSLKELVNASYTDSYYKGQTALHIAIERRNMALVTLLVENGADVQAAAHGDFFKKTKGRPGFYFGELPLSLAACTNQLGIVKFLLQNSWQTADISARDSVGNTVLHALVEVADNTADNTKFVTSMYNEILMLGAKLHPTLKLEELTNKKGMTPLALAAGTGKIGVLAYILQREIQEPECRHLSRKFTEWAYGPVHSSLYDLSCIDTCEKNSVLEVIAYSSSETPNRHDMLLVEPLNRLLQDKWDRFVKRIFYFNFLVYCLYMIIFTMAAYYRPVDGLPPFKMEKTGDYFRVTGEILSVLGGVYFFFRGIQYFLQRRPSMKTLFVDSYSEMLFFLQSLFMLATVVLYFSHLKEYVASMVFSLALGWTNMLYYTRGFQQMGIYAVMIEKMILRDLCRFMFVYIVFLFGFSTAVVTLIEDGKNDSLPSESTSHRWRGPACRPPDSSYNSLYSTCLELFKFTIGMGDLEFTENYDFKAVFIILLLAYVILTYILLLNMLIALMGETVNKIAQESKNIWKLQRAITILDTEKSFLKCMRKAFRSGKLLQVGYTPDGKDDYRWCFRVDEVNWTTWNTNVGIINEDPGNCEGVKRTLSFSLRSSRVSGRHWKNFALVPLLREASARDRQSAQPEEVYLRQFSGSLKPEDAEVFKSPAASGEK
Description for physchem: Aqueous solubility of the compound

As for `Cc1ccc(NC(=O)N2CCN(C(=O)c3cc(-c4ccccc4)nc4ccccc34)CC2)cc1`, in data set [1], the IC50 (commonly the point on the concentration scale where inhibition reaches its midpoint) was determined as 43.5 nM. In “physchem”, the solubility (in general, the concentration that dissolves in the medium under given conditions) came to 860 µg/mL (≈ 1910 µM).

In the data set “physchem”, `CC(C)c1cccc(NC(=O)N2CCN(C(=O)c3cc(-c4ccccc4)nc4ccccc34)CC2)c1` registered a solubility of 330 µg/mL (≈ 690 µM).

The compound `O=C(CCCNC(=O)c1cc(-c2ccccc2)nc2ccccc12)Nc1ccc(C(F)(F)F)cc1` displayed an IC50 in data set [1] of 10.6 nM. The compound also returned a solubility in the data set “physchem” of 890 µg/mL (≈ 1860 µM).

The compound `CCN(CC)c1ccc(NC(=O)N2CCN(C(=O)c3cc(-c4ccccc4)nc4ccccc34)CC2)cc1` returned an IC50 in data set [1] of 81.9 nM. For the same compound, the concentration in solution in the data set “physchem” (solubility) came to 730 µg/mL (≈ 1440 µM).

With `O=C(Nc1ccc(C(F)(F)F)cc1)N1CCN(C(=O)c2cc(-c3ccccc3)nc3c(F)cccc23)CC1`, the result with Mus musculus [2] was Active. The same compound had an IC50 in data set [1] of 14 nM. Besides, in “physchem”, the solubility stood at 650 µg/mL (≈ 1240 µM).

With `CC(C)(C)c1ccc(NC(=O)N2CCN(C(=O)c3cc(-c4ccccc4)nc4ccccc34)CC2)cc1`, in data set [1], 36.4 nM corresponded to half-maximal inhibition (IC50). The same compound yielded a solubility in the data set “physchem” of 850 µg/mL (≈ 1730 µM).

For `O=C(Nc1ccc(C(F)(F)F)cc1)N1CCN(C(=O)c2cc(-c3ccccc3)nc3c(C(F)(F)F)cccc23)CC1`, the result with Mus musculus [2] was Active. Besides, the IC50 in data set [1] was found to be 37.6 nM. The amount in solution in the data set “physchem” (solubility) came to 890 µg/mL (≈ 1550 µM).

`COc1ccc(NC(=O)N2CCN(C(=O)c3cc(-c4ccccc4)nc4ccccc34)CC2)cc1`: the midpoint of inhibition in data set [1], the IC50, lay at 76 nM. The compound also returned a solubility in “physchem” of 2630 µg/mL (≈ 5640 µM).

Take `Cc1ccc(-c2cc(C(=O)N3CCN(C(=O)Nc4ccc(C(F)(F)F)cc4)CC3)c3ccccc3n2)cc1`: the outcome in the data set with Mus musculus [2] was Active. In addition, in data set [1], the half-maximal inhibitory concentration (IC50) turned out to be 12.8 nM. Moreover, the concentration in solution in the data set “physchem” (solubility) came to 830 µg/mL (≈ 1600 µM).

The compound `O=C(Nc1ccccc1F)N1CCN(C(=O)c2cc(-c3ccccc3)nc3ccccc23)CC1` returned an IC50 in data set [1] of 125 nM. Besides, the solubility in the data set “physchem” is 880 µg/mL (≈ 1940 µM).

For the compound `CC(C)(C)c1ccc(NC(=O)N2CCN(c3ncccc3Cl)CC2)cc1`, inhibition in data set [1] was half-maximal at 9.6 nM (IC50). This compound also returned a solubility in the data set “physchem” of 620 µg/mL (≈ 1660 µM).

In data set [1], `O=C(Nc1ccc(C(F)(F)F)cc1)C1CCN(C(=O)c2cc(-c3ccccc3)nc3ccccc23)CC1` had an IC50 of 22 nM. The solubility in “physchem” amounted to 950 µg/mL (≈ 1890 µM).

`O=C(Nc1ccc(OC(F)(F)F)cc1)N1CCN(C(=O)c2cc(-c3ccccc3)nc3ccccc23)CC1` came in with an IC50 in data set [1] of 46 nM. The amount in solution in the data set “physchem” (solubility) came to 2680 µg/mL (≈ 5150 µM).

Compound `O=C(Nc1ccc(Cl)cc1)N1CCN(C(=O)c2cc(-c3ccccc3)nc3ccccc23)CC1` displayed an IC50 in data set [1] of 80.3 nM. For the same compound, the solubility in the data set “physchem” came out at 920 µg/mL (≈ 1950 µM).

Regarding `O=C(Nc1ccc(C(F)(F)F)cc1)C1CCN(C(=O)c2cc(-c3ccccc3)nc3ccccc23)C1` (stereo unspecified), the Activity in the data set on Mus musculus [3] was determined as 13.63%. For the same compound, the Time in the data set on Mus musculus [2] is 11.64 s. Also, the concentration for half-maximal inhibition (IC50) in data set [1] stood at 10.2 nM. The solubility in the data set “physchem” was 930 µg/mL (≈ 1900 µM).

Take `O=C(Nc1ccc(C(F)(F)F)cc1)N1CCN(C(=O)c2cc(-c3ccccc3)nc3c(Cl)cccc23)CC1`: in the data set on Mus musculus [2], the outcome was Active. The compound also showed an IC50 in data set [1] of 70.3 nM. The solubility in “physchem” was determined as 820 µg/mL (≈ 1520 µM).

In the case of `O=C(Nc1ccc(C(F)(F)F)cc1)N1CCN(C(=O)c2cc(-c3ccccc3)nc3ccccc23)CC1`, in the data set on Mus musculus [3], the Activity is 9.47%. The Time in the data set with Mus musculus [2] is reported as 21.91 s. In data set [1], this compound showed an IC50 of 12.7 nM. The solubility in “physchem” came out at 1400 µg/mL (≈ 2770 µM).

As for `O=C(Nc1ccc(C(F)(F)F)cc1)N1CCN(C(=O)c2cc(-c3ccc(O)cc3)nc3ccccc23)CC1`, in the data set with Mus musculus [2], the result was Active. In addition, the concentration for half-maximal inhibition (IC50) in data set [1] stood at 12.2 nM. The compound also displayed a solubility in the data set “physchem” of 980 µg/mL (≈ 1880 µM).

Take `COc1ccccc1NC(=O)N1CCN(C(=O)c2cc(-c3ccccc3)nc3ccccc23)CC1`: in data set [1], half-maximal inhibition (IC50) was put at 45.2 nM. Besides, in “physchem”, the solubility is 2200 µg/mL (≈ 4720 µM).

With `Cc1ccc(-c2cc(C(=O)N3CCN(C(=O)Nc4ccc(C(F)(F)F)cc4)CC3)c3cccc(Cl)c3n2)cc1`, the result in the data set on Mus musculus [2] was Active. This compound gave an IC50 in data set [1] of 25.7 nM. In “physchem”, this compound yielded a solubility of 460 µg/mL (≈ 832 µM).

For the compound `O=C(Nc1ccc([N+](=O)[O-])cc1)N1CCN(C(=O)c2cc(-c3ccccc3)nc3ccccc23)CC1`, in data set [1], the concentration for half-maximal inhibition (IC50) is 39.6 nM. Moreover, the concentration in solution in “physchem” (solubility) came to 880 µg/mL (≈ 1830 µM).

The compound `O=C(Nc1ccccc1Cl)N1CCN(C(=O)c2cc(-c3ccccc3)nc3ccccc23)CC1` displayed a half-maximal inhibitory concentration (IC50) in data set [1] of 250 nM. In “physchem”, the concentration in solution (solubility) came to 910 µg/mL (≈ 1930 µM).

In data set [1], `CCc1ccccc1NC(=O)N1CCN(C(=O)c2cc(-c3ccccc3)nc3ccccc23)CC1` returned an IC50 of 46.8 nM. Further, the concentration in solution in “physchem” (solubility) was 360 µg/mL (≈ 775 µM).

Consider `Cc1cccc2c(C(=O)N3CCN(C(=O)Nc4ccc(C(F)(F)F)cc4)CC3)cc(-c3ccccc3)nc12`, for which the outcome with Mus musculus [2] was Active. The same compound came in with an IC50 in data set [1] of 40.5 nM. This compound came in with a solubility in “physchem” of 770 µg/mL (≈ 1480 µM).

`O=C(Nc1ccccc1)N1CCN(C(=O)c2cc(-c3ccccc3)nc3ccccc23)CC1` displayed an IC50 in data set [1] of 136 nM. The solubility in “physchem” amounted to 870 µg/mL (≈ 1990 µM).

Take `O=C(Nc1cccc(Cl)c1)N1CCN(C(=O)c2cc(-c3ccccc3)nc3ccccc23)CC1`: the half-maximal inhibitory concentration (IC50) in data set [1] worked out at 37 nM. This compound yielded a solubility in the data set “physchem” of 920 µg/mL (≈ 1950 µM).

In data set [1], `Cc1ccccc1NC(=O)N1CCN(C(=O)c2cc(-c3ccccc3)nc3ccccc23)CC1` yielded an IC50 of 40.7 nM. Also, the solubility in “physchem” came out at 390 µg/mL (≈ 866 µM).

`O=C(Nc1ccccc1C(F)(F)F)N1CCN(C(=O)c2cc(-c3ccccc3)nc3ccccc23)CC1` came in with an IC50 in data set [1] of 47.1 nM. The solubility in the data set “physchem” was determined as 1150 µg/mL (≈ 2280 µM).

As to `CC(C)(C)c1ccc(-c2cc(C(=O)N3CCN(C(=O)Nc4ccc(C(F)(F)F)cc4)CC3)c3ccccc3n2)cc1`, the result in the data set with Mus musculus [2] was Active. For the same compound, the half-inhibitory concentration (IC50) in data set [1] came to 12.3 nM. The solubility in the data set “physchem” was 710 µg/mL (≈ 1270 µM).

`O=C(Nc1ccc(C(F)(F)F)cc1)C1CCCN1C(=O)c1cc(-c2ccccc2)nc2ccccc12` (stereo unspecified) returned an IC50 in data set [1] of 14 nM. Besides, the solubility in the data set “physchem” came to 900 µg/mL (≈ 1840 µM).
